According to patent US20240024273A1, “TOPICAL ADMINISTRATION OF 2-(DIETHYLAMINO)ETHYL 2-(4-ISOBUTYLPHENYL)PROPRIONATE FOR TREATMENT OF DISEASES” (TECHFIELDS PHARMA CO., LTD., priority 2020, published 2024):

Key:
Format in all cases: in vivo, human
[1] = test system: osteoarthritis of the knee; experiment: Second Phase 2 study: Investigator's assessment of response to therapy (IART); settings: Week 12; for IART: Good and Very good / IART: Poor and Very Poor / IART: fair: first 130 subjects; for IART, Good and Very good / IART, Poor and Very Poor / IART, fair: all subjects
From the text: 4.9.3. Exploratory Efficacy Endpoints: • 1. Investigator's global assessment of response to therapy of the target knee at 2, 4, 8, and 12 weeks of treatment; • 2. Change from Baseline over time in overall WOMAC (VAS) score for the target knee after the treatment is stopped for 2 weeks.

[2] = test system: osteoarthritis of the knee; experiment: Second Phase 2 study: Subject Global Impression of Change (SGIC); settings: Week 12; for Subject's satisfaction rate (SGIC good and very good) / SGIC: Good and Very good / SGIC: Poor and Very Poor / SGIC: fair: first 130 subjects; for SGIC, Good and Very good / SGIC, Poor and Very Poor / SGIC, fair: all subjects
From the text: 4.9.2. Secondary Efficacy Endpoints: • 1. Change from Baseline in the WOMAC (VAS) pain subscale score for the target knee at 2, 8, and 12 weeks of treatment; • 2. Change from Baseline in the WOMAC (VAS) stiffness subscale scores for the target knee and WOMAC (VAS) functional ability subscale scores at 2, 4, 8, and 12 weeks of treatment; • 3. Change from Baseline in the overall WOMAC (VAS) score at 2, 4, 8, and 12 weeks of treatment; • 4. Subject's global assessment of disease status of the target knee at 2, 4, 8, and 12 weeks of treatment; • 5. Subject's global assessment of response to therapy of the target knee at 2, 4, 8, and 12 weeks of treatment; • 6. Amount of rescue medication (acetaminophen) consumed per day for target knee pain.

[3] = test system: osteoarthritis of the knee; experiment: Second Phase 2 study: Subject's pain Assessment Scores (SPA)
Protocol: Subjects will record the following information in a Daily Diary starting at Screening: the amount of knee pain in the target knee while walking during the preceding 24 hours (using a 100 mm visual analog scale [VAS]), the times and number of sprays for each administration of study medication, the times when the subject washes his/her knees and/or takes a shower, the number of tablets of rescue medication taken that day and the times taken, the reason for taking the rescue medication (e.g., knee pain, headache, low back pain), any other concomitant medications taken that day, and any AEs occurring that day.

[4] = 17.5 mg/knee BID, Week 12, first 130 subjects
[5] = Week 12, 4.375 mg/knee BID (n = 23), first 130 subjects
[6] = Week 12, 8.75 mg/knee BID (n = 24), first 130 subjects
[7] = Week 12, 17.5 mg/knee BID (n = 19), first 130 subjects
[8] = all subjects, 4.375 mg/knee BID, n = 49, Week 12
[9] = all subjects, 8.75 mg/knee BID, n = 54, Week 12
[10] = all subjects, 17.5 mg/knee BID, n = 52, Week 12
[11] = Oral Ibuprofen 3 × 400 mg, n = 48
[12] = Week 12, oral, 3 × 400 mg (n = 20), first 130 subjects
[13] = all subjects, Oral Ibuprofen 3 × 400 mg, n = 48, Week 12

## CCN(CC)CCOC(=O)C(C)c1ccc(CC(C)C)cc1 (centres unmarked) [2-(diethylamino)ethyl 2-(4-isobutylphenyl)propionate]
[1]; 4.375 mg/knee BID (n = 23)
  IART: Good and Very good: 39.1%
  IART: Poor and Very Poor: 4.3%
  IART: fair: 56.5%
[1]; 8.75 mg/knee BID (n = 24)
  IART: Good and Very good: 37.5%
  IART: Poor and Very Poor: 12.5%
  IART: fair: 50.0%
[1]; 17.5 mg/knee BID (n = 19)
  IART: Good and Very good: 57.9%
  IART: Poor and Very Poor: 5.3%
  IART: fair: 36.8%
[1]; 4.375 mg/knee BID, n = 49
  IART, Good and Very good: 40.8%
  IART, Poor and Very Poor: 10.2%
  IART, fair: 49.0%
[1]; 8.75 mg/knee BID, n = 54
  IART, Good and Very good: 50.0%
  IART, Poor and Very Poor: 13.0%
  IART, fair: 37.0%
[1]; 17.5 mg/knee BID, n = 52
  IART, Good and Very good: 61.5%
  IART, Poor and Very Poor: 3.8%
  IART, fair: 34.6%
[2]; 17.5 mg/knee BID
  Subject's satisfaction rate (SGIC good and very good): 73.7%
[2]; 4.375 mg/knee BID (n = 23)
  SGIC: Good and Very good: 39.1%
  SGIC: Poor and Very Poor: 4.3%
  SGIC: fair: 56.5%
[2]; 8.75 mg/knee BID (n = 24)
  SGIC: Good and Very good: 37.5%
  SGIC: Poor and Very Poor: 16.7%
  SGIC: fair: 45.8%
[2]; 17.5 mg/knee BID (n = 19)
  SGIC: Good and Very good: 73.7%
  SGIC: Poor and Very Poor: 5.3%
  SGIC: fair: 21.1%
[2]; 4.375 mg/knee BID, n = 49
  SGIC, Good and Very good: 32.7%
  SGIC, Poor and Very Poor: 10.2%
  SGIC, fair: 57.1%
[2]; 8.75 mg/knee BID, n = 54
  SGIC, Good and Very good: 46.3%
  SGIC, Poor and Very Poor: 16.7%
  SGIC, fair: 37.0%
[2]; 17.5 mg/knee BID, n = 52
  SGIC, Good and Very good: 61.5%
  SGIC, Poor and Very Poor: 5.8%
  SGIC, fair: 32.7%
[3]; [4]
  SPA, difference from oral ibuprofen: −14.1 mm
  SPA, difference from placebo: −21.0 mm
[3]; 4.375 mg/knee BID (n = 23), first 130 subjects
  Subject’s pain Assessment Scores, Baseline (LS Mean): 59.7 mm
[3]; 8.75 mg/knee BID (n = 24), first 130 subjects
  Subject’s pain Assessment Scores, Baseline (LS Mean): 63.5 mm
[3]; 17.5 mg/knee BID (n = 19), first 130 subjects
  Subject’s pain Assessment Scores, Baseline (LS Mean): 68.6 mm
[3]; [5]
  Subject’s pain Assessment Scores, % of improvement from Oral Ibuprofen: −2.3%
  Subject’s pain Assessment Scores, % of improvement from baseline: −38.5%
  Subject’s pain Assessment Scores, % of improvement from placebo: −9.3%
  Subject’s pain Assessment Scores, Changes from Baseline (LS Mean): −23.0 mm
  Subject’s pain Assessment Scores, Different from oral ibuprofen (LS Mean): 2.8 mm
  Subject’s pain Assessment Scores, Different from placebo (LS Mean): −4.0 mm
  Subject’s pain Assessment Scores, Week 12 (LS Mean): 36.7 mm
[3]; [6]
  Subject’s pain Assessment Scores, % of improvement from Oral Ibuprofen: −10.4%
  Subject’s pain Assessment Scores, % of improvement from baseline: −47.7%
  Subject’s pain Assessment Scores, % of improvement from placebo: −18.5%
  Subject’s pain Assessment Scores, Changes from Baseline (LS Mean): −30.3 mm
  Subject’s pain Assessment Scores, Different from oral ibuprofen (LS Mean): −3.8 mm
  Subject’s pain Assessment Scores, Different from placebo (LS Mean): −11.4 mm
  Subject’s pain Assessment Scores, Week 12 (LS Mean): 33.2 mm
[3]; [7]
  Subject’s pain Assessment Scores, % of improvement from Oral Ibuprofen: −22.0%
  Subject’s pain Assessment Scores, % of improvement from baseline: −58.2%
  Subject’s pain Assessment Scores, % of improvement from placebo: −29.0%
  Subject’s pain Assessment Scores, Changes from Baseline (LS Mean): −39.9 mm
  Subject’s pain Assessment Scores, Different from oral ibuprofen (LS Mean): −14.1 mm
  Subject’s pain Assessment Scores, Different from placebo (LS Mean): −21.0 mm
  Subject’s pain Assessment Scores, Week 12 (LS Mean): 28.7 mm
[3]; [8]
  Subject's pain Assessment Scores, % of improvement from Oral Ibuprofen: 4.9%
  Subject's pain Assessment Scores, % of improvement from Placebo: −3.5%
  Subject's pain Assessment Scores, % of improvement from baseline: −40.5%
  Subject's pain Assessment Scores, Changes from Baseline (LS Mean): −25.6 mm
  Subject's pain Assessment Scores, Week 12 (LS Mean): 37.5 mm
[3]; [9]
  Subject's pain Assessment Scores, % of improvement from Oral Ibuprofen: −3.0%
  Subject's pain Assessment Scores, % of improvement from Placebo: −11.4%
  Subject's pain Assessment Scores, % of improvement from baseline: −48.4%
  Subject's pain Assessment Scores, Changes from Baseline (LS Mean): −31.4 mm
  Subject's pain Assessment Scores, Different from oral ibuprofen (LS Mean): −0.8 mm
  Subject's pain Assessment Scores, Different from placebo (LS Mean): −7.2 mm
  Subject's pain Assessment Scores, Week 12 (LS Mean): 33.5 mm
[3]; [10]
  Subject's pain Assessment Scores, % of improvement from Oral Ibuprofen: −8.2%
  Subject's pain Assessment Scores, % of improvement from Placebo: −16.6%
  Subject's pain Assessment Scores, % of improvement from baseline: −53.6%
  Subject's pain Assessment Scores, Changes from Baseline (LS Mean): −34.6 mm
  Subject's pain Assessment Scores, Different from oral ibuprofen (LS Mean): −4.1 mm
  Subject's pain Assessment Scores, Different from placebo (LS Mean): −10.5 mm
  Subject's pain Assessment Scores, Week 12 (LS Mean): 30.0 mm

## CC(C)Cc1ccc(C(C)C(=O)O)cc1 (centres unmarked) [Ibuprofen, 2-(4-isobutylphenyl)propionic acid, reference compound]
[1]; oral, 3 x 400 mg (n = 20)
  IART: Good and Very good: 50.0%
  IART: Poor and Very Poor: 25.0%
  IART: fair: 25.0%
[1]; [11]
  IART, Good and Very good: 47.9%
  IART, Poor and Very Poor: 8.3%
  IART, fair: 43.8%
[2]; oral, 3 x 400 mg (n = 20)
  SGIC: Good and Very good: 55.0%
  SGIC: Poor and Very Poor: 10.0%
  SGIC: fair: 35.0%
[2]; [11]
  SGIC, Good and Very good: 47.9%
  SGIC, Poor and Very Poor: 8.3%
  SGIC, fair: 43.8%
[2]; oral 3×400 mg/day
  Subject's satisfaction rate (SGIC good and very good): 55%
[3]; oral, 3 × 400 mg (n = 20), first 130 subjects
  Subject’s pain Assessment Scores, Baseline (LS Mean): 71.2 mm
[3]; [12]
  Subject’s pain Assessment Scores, % of improvement from baseline: −36.2%
  Subject’s pain Assessment Scores, % of improvement from placebo: −7.0%
  Subject’s pain Assessment Scores, Changes from Baseline (LS Mean): −25.8 mm
  Subject’s pain Assessment Scores, Different from placebo (LS Mean): −6.9 mm
  Subject’s pain Assessment Scores, Week 12 (LS Mean): 45.4 mm
[3]; [13]
  Subject's pain Assessment Scores, % of improvement from Placebo: −8.4%
  Subject's pain Assessment Scores, % of improvement from baseline: −45.4%
  Subject's pain Assessment Scores, Changes from Baseline (LS Mean): −30.5 mm
  Subject's pain Assessment Scores, Week 12 (LS Mean): 36.6 mm
[3]; all subjects, Oral Ibuprofen 3 × 400 mg, n = 48 vs. Placebo n = 48
  SPA, difference vs. Placebo: −6.4 mm
[3]; oral 3×400 mg, first 130 subjects
  SPA, difference from placebo: 6.1 mm
